Reference: patent US20210228523A1, “MODULATORS OF SESTRIN-GATOR2 INTERACTION AND USES THEREOF” (Navitor Pharmaceuticals, Inc., priority 2017, published 2021)

Assays:
[1] = test system: mTORC1 signaling; assay: Cell-based mTORC1 activation (Method 2): western blot of phosphorylated S6 Kinase/4EBP1 in leucine-starved HEK293T cells; settings: concentration 100 μM, shift relative to DMSO control
Experimental: Briefly, 800,000 HEK293T cells were plated in each well of a 6-well plate in DMEM supplemented with 10% fetal bovine serum and antibiotics. […] Cells were then lysed, processed for SDS-PAGE and western blotting was performed with antibodies directed against the mTORC1 substrates phosphorylated S6 Kinase (Thr389) and phosphorylated 4EBP1 (Thr37/46) (Cell Signaling Technology) and loading controls (beta-actin, Santa Cruz Biotechnology) as described in Kang, S. A., et al. Science 341(6144): 364-374 (2013). The intensity of the bands corresponding to the phosphorylated substrates were then normalized to the actin band using the LI-COR® imaging platform.

[2] = target: T1, GATOR2/Sestrin2 complexes (Homo sapiens, UniProt P58004); assay: In vitro PPI assay (Method 1; Western blot assay): Sestrin2 bound to GATOR2 after compound addition to immunoprecipitated FLAG-WDR24 complex; type: binding; settings: 25 μM, % activity relative to leucine (25 μM = 100%)
T1 construct: endogenous in cells; host or cells: HEK293T cells stably expressing FLAG-WDR24 (lentiviral, pLJM60)
T1 sequence (P58004 1-480): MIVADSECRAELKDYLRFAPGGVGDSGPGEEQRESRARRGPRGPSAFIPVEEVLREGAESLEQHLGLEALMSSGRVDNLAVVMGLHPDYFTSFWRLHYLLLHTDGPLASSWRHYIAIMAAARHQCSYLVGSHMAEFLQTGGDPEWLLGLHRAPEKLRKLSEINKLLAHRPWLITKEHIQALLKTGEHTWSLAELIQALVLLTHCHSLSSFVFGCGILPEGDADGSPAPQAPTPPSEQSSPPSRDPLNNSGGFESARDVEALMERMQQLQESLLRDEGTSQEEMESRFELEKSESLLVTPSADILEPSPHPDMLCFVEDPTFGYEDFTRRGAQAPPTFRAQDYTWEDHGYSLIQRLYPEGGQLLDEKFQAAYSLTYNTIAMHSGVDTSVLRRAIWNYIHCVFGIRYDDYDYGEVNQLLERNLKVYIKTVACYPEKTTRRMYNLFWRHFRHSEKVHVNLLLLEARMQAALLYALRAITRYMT
From the text: This screening assay measured test compound activity in vitro on GATOR2/Sestrin2 complexes purified via immunoprecipitation of stably expressed FLAG-WDR24 from HEK293T cells. HEK293T cells (293 Ts) were engineered to stably express N-terminally tagged FLAG-WDR24 via transduction by lentivirus. Lentiviruses were produced by co-transfection of the lentiviral transfer vector pLJM60 with the […] into HEK-293T cells using the XTremeGene 9 transfection reagent (Roche Diagnostics). The media was changed 24 hours post-transfection to Dulbecco's Modified Eagle's media (DMEM) supplemented with 30% Inactivated Fetal Serum. The virus-containing supernatants were collected 48 and 72 hours after transfection and passed through a 0.45 μm filter to eliminate cells. Target cells in 6-well tissue culture plates were infected in media containing 8 μg/mL polybrene and spin infections were performed by centrifugation at 2,200 rpm for 1 hour. Twenty-four hours after infection, the virus was removed and the cells selected with the appropriate antibiotic. Cells were then grown in DMEM supplemented with 10% fetal bovine serum and antibiotics.
Seventy-two hours later, cells were placed in standard RPMI media formulated with no amino acids and supplemented with 5 mM Glucose (−AA RPMI, US Biological Life Sciences) for 1 hour then subsequently lysed in lysis buffer (40 mM HEPES, 1% Triton, 10 mM sodium β-glycerophosphate, 10 mM sodium pyrophosphate, 2.5 mM MgCl2 and protease inhibitors). To isolate the FLAG-WDR24/endogenous-Sestrin2 complex, crude lysate (equivalent to 2-4 mg of total protein) in a volume of 1 ml was subjected to immunoprecipitation with 30 μl of anti-flag resin (SIGMA) for 2 hours at 4° C., washed twice in cold lysis buffer plus 0.5M NaCl and resuspended in 1 ml of cold cytosolic buffer (40 mM HEPES pH 7.4, 140 mM KCl, 10 mM NaCl, 2.5 mM MgCl2, 0.1% TritonX-100). […] After the incubation period, samples were centrifuged to pellet the FLAG-WDR24/endogenous-Sestrin2 complex bound to the anti-flag resin, the supernatant was completely removed and resin was resuspended in SDS-PAGE sample buffer and boiled for 5 minutes. Samples were then processed by SDS-PAGE and western blots were performed with anti-FLAG (SIGMA) and anti-Sestrin2 (Cell Signaling Technology) antibodies as described in L. Chantranupong, et al., Cell Reports 9:1-8 (2014).
The resulting western blots were scanned and band intensities corresponding to Sestrin2 and FLAG-WDR24 were quantified using the LI-COR® imaging platform. To determine the amount of Sestrin2 bound to GATOR2 for each condition, the band intensity for Sestrin2 was normalized to the band intensity of FLAG-WDR24. […]
72 hours later, cells were placed in standard RPMI media formulated with no amino acids and supplemented with 5 mM Glucose (−AA RPMI, USBiological Life Sciences) for 1 hour then subsequently lysed in lysis buffer (40 mM HEPES, 1% Triton, 10 mM Sodium Beta-Glycerophosphate, 10 mM Sodium Pyrophosphate, 2.5 mM MgCl2 and protease inhibitors). The Flag-WDR24/endogenous-Sestrin2 complex was isolated as follows: crude lysate (equivalent to 2-4 mg of total protein) in a volume of 1 ml was subjected to immunoprecipitation (IP) with 30 μl of anti-flag resin (SIGMA) for 2 hours at 4° C., washed twice in cold lysis buffer plus 0.5M NaCl and resuspended in 1 ml of cold cytosolic buffer (40 mM HEPES pH 7.4, 140 mM KCl, 10 mM NaCl, 2.5 mM MgCl2, 0.1% TritonX-100). Compounds were then added to each sample at a given concentration of 25 μM and incubated with rotation at 4° C. for 30 minutes. After the incubation period, samples were centrifuged to pellet the Flag-WDR24/endogenous-Sestrin2 complex bound to the anti-flag resin, the supernatant was completely removed and resin was resuspended in sodium dodecyl sulfate-polyacrylamide gel electrophoresis (SDS-PAGE) sample buffer and boiled for 5 minutes. […]

[3] = test system: point mutant form of Sestrin2 unable to bind leucine; assay: ILBA with Flag-tagged point mutant Sestrin2; type: binding, human
Experimental: In one version, the assay was performed with crude lysate generated from a human cell line after a 1-hour period of amino acid starvation (cells are lysed in 1% Triton, 10 mM beta-glycerol phosphate, 10 mM sodium pyrophosphate, 40 mM HEPES [pH 7.4], 150 mM NaCl and 2.5 mM MgCl2). […] After compound incubation, samples were subjected to immunoprecipitation with the CST anti-Sestrin2 antibody for 1.5 hours followed by a 30-minute incubation with protein-A sepharose as described in L. Chantranupong, et al., Cell Reports 9:1-8 (2014). The sepharose conjugated antibody-protein complex was precipitated via centrifugation and the flow-through was subjected to a second round of immunoprecipitation with a rabbit polyclonal anti-Sestrin2 antibody (Protein Tech, #10795-1-AP) to determine that total Sestrin2 protein levels between samples were equal. SDS-PAGE was performed with the immunoprecipitation samples followed by western-blot with the mouse monoclonal anti-Sestrin2 antibody from SIGMA (cat #WH0083667M3).
This assay was also performed in cultured human cells over-expressing Sestrin2 N-terminally fused to a Flag tag. In this version of the assay, the procedure remained the same, but immunoblotting was performed with a mouse anti-Flag antibody (#F3165, SIGMA).

[4] = test system: mTORC1; assay: Western blot of pS6 in rat brain and selected peripheral organs; type: in vivo; settings: Example D; Leu 500 mg/kg oral; 1 hr post-dose
Experimental: Study Design: Thirty (30) male rats weighing between 175 and 200 g were randomized into 3 study groups (n=10), following a 5-day acclimation period. One hour following dosing rats were sacrificed by conscious decapitation, plasma, brain and selected peripheral tissues were harvested for compound level and WB analysis. Tissues were prepared for WB to quantitate the mTORC1 substrate pS6 as a measure of mTORC1 activity.
The dosing volume based on the weight of the animal (10 mL/kg) was administered by oral gavage. Test articles were prepared the day of dosing.
Tissues Preparations: One hour following dosing rats were sacrificed by conscious decapitation, plasma, brain and peripheral tissues were harvested and immediately frozen in liquid nitrogen. Tissues were thawed and homogenized for 1 min twice using MP homogenizer in Lysis Buffer (Cell lysis buffer: 1% Triton X-100, 50 mM HEPES pH 7.4, 100 mM NaCl, 2 mM EDTA, 10 mM Beta-glycerophosphate, 10 mM Sodium pyrophosphate, and 1 protease inhibitor tab per 50 mL fresh) at 4° C. Lysates were then sonicated on ice for 20 s at 50% amplitude. The protein concentration was determined by Bradford assay and all samples were mixed with loading buffer (50 mM Tris-HCl pH 6.8, 2% SDS, 5% glycerol, 5% β-mercaptoethanol and 0.01% Bromophenol blue) and stored at −20° C. until WB analysis.
Western Blot (WB) Analysis. Equal amounts of each sample (15 μg of total protein) were loaded and separated on NuPAGE 4-12% Bis-Tris gels and transferred to PVDF membrane (Immobilon-FL PVDF membrane, Millipore) using CAPS Buffer (10 mM 3-(Cyclohexylamino)-1-propanesulfonic acid, 12.5% Ethanol pH=10). After transfer, membranes were incubated for 1 hr at room temperature in Odyssey blocking buffer (Licor). After blocking, membranes were incubated at 4° C. overnight with primary antibodies. Primary antibodies used were rabbit anti-[…] (cell signaling; #5364) at 1:1000, mouse anti-GAPDH (Sigma; #G8795) at 1:1000 and mouse anti-a-tubulin (Sigma; #T5168) at 1:10000 in Odyssey blocking buffer. The next day, membranes were washed three times in 1×TBS-Tween (25 mM Tris, pH 7.4, 3.0 mM KCl, 140 mM NaCl and 0.05% Tween-20) and incubated with dye-coupled secondary antibodies (goat anti-mouse IRdye680, and goat anti-rabbit IRdye800 from LI-COR) at 1:20000 in Odyssey blocking buffer for 30 min then wash three times in IX TBS-Tween. Signals were quantified using the Odyssey Infrared Imaging System (LI-COR Bioscience). The resulting densitometric readings were used to generate a ratio of phopho-protein to a-tubulin or GAPDH. The resulting ratio was further normalized to vehicle treated control group.

| SMILES | Cell-Based mTORC1 Activation [1] | Activity of Leucine: % Activity [2] | also measured |
| --- | --- | --- | --- |
| NC(CCCC(F)(F)F)C(=O)O (stereo not drawn) [Compound I-42] | D to F | A (a % activity relative to leucine of ≥40%) | – |
| CC(C)(C)C[C@H](N)C(=O)O [γ-methylleucine] | – | – | decrease in affinity of the CST antibody upon ligand binding [3]: not observed |
| CC(C)(C)C[C@H](N)C(=O)O [Compound I-43] | D to E | A (a % activity relative to leucine of ≥40%) | – |
| CC(C)C[C@H](N)C(N)=O.Cl [Compound I-23] | D to F | C (a % activity relative to leucine of between -40 and 40%) | – |
| COC(=O)[C@@H](N)CC(C)C [Compound I-168] | D to E | – | – |
| N[C@@H](CC1CCC1)C(=O)O [Compound I-37] | E to F | A (a % activity relative to leucine of ≥40%) | – |
| CC(C)C[C@H](N)C(=O)O [Leu, Leucine, reference compound] | – | – | pS6 levels in rat brain [4]: no activation was observed |
| Cl.N[C@@H](CCCCC(F)(F)F)C(=O)O [Compound I-2, (S)-2-amino-7,7,7-trifluoroheptanoic Acid Hydrochloride] | – | B (a % activity relative to leucine of ≤−40%) | – |
| CC(C)C[C@H](N)B1OC(C)(C)C(C)(C)O1 [Compound I-38] | – | C (a % activity relative to leucine of between -40 and 40%) | – |
| C[C@H](CC(N)C(=O)O)C(F)(F)F (stereo in doubt) [Compound I-167, (2R,4R)-2-amino-5,5,5-trifluoro-4-methylpentanoic Acid] | D to F | A (a % activity relative to leucine of ≥40%) | – |
| CC(C)C[C@@H](N)B1OC(C)(C)C(C)(C)O1 [Compound I-10] | – | C (a % activity relative to leucine of between -40 and 40%) | – |
| CC(C)C[C@@H](N)S(=O)(=O)O [Compound I-156] | – | C (a % activity relative to leucine of between -40 and 40%) | – |
| N[C@@H](CC(F)(F)F)C(=O)O [Compound I-4, (S)-2-amino-4,4,4-trifluorobutanoic Acid] | – | C (a % activity relative to leucine of between -40 and 40%) | – |
| CCCC[C@H](N)C(=O)O [Compound I-31] | – | A (a % activity relative to leucine of ≥40%) | – |
| N[C@@H](CC1CC1)C(=O)O [Compound I-35] | – | A (a % activity relative to leucine of ≥40%) | – |
| CC(C)C[C@H](NC(C)C)C(=O)O [Compound I-13, (S)-2-(isopropylamino)-4-methylpentanoic Acid] | – | C (a % activity relative to leucine of between -40 and 40%) | – |
